Legend:
[1] = test system: extracellular serotonin in the ventral hippocampus; test: Microdialysis in rats, single administration ± (R)-citalopram; assay type: in vivo, rat; details: FIG. 3
Experimental: (§1) Male Sprague-Dawley rats, initially weighing 275-300 g, are used
(§2) Rats are anaesthetised with hypnorm/dormicum (2 ml/kg) and intracerebral guide cannulas (CMA/12) are stereotaxically implanted into the hippocampus, aiming to position the dialysis probe tip in the ventral hippocampus (co-ordinates: 5.6 mm posterior to bregma, lateral −5.0 mm, 7.0 mm ventral to dura or in the frontal cortex (co-ordinates: 3.2 mm anterior to bregma; lateral, 0.8 mm; 4.0 mm ventral to dura). Anchor screws and acrylic cement are used for fixation of the guide cannulas. The body temperature of the animals is monitored by rectal probe and maintained at 37° C. The rats are allowed to recover from surgery for 2 days, housed singly in cages. On the day of the experiment, a microdialysis probe (CMA/12, 0.5 mm diameter, 3 mm length) is inserted through the guide cannula.
(§3) The probes are connected via a dual channel swivel to a microinjection pump. Perfusion of the microdialysis probe with filtered Ringer solution ([…], 3 mM KCl, 1 mM MgCl2, 1.2 mM CaCl2) is begun shortly before insertion of the probe into the brain and continued for the duration of the experiment at a constant flow rate of 1 μL/min. After 180 min of stabilisation, the experiments are initiated. Dialysates were collected every 20 min. […]
(§4) Concentration of 5-HT in the dialysates is analysed by means of HPLC with electrochemical detection. […]

hSERT [2] = target: T1, hSERT (Homo sapiens, UniProt P31645); assay type: binding; details: increasing concentrations of (R)-citalopram; FIG. 2
T1 construct: expressed in transfected cells; host or cells: HEK293 cells expressing hSERT; membranes
Experimental: Association rates are determined on membrane preparations from HEK293 cells transiently expressing hSERT. The kinetics of the association of the [^3H]compound- SERT complex is determined after incubation of aliquots consisting of 10 μg membranes from HEK293 cells transiently expressing hSERT and 290 μL [^3H]test compound pre incubated until equilibrium. Association is initiated by addition of radioligand in the absence or presence of R-citalopram (0-300 μM). Bound [^3H]test compound is measured after 0, 2, 5, 10, 15, 20, 30, 50, 70 and 90 minutes.
HEK293 cells expressing hSERT are harvested and 10 μg HEK293-hSERT membrane is placed in each well in a 96 well microtiter plate. […] Concentration of test-compounds is varied from the nM to the μM range. Incubation-time is 0, 2, 5, 10, 15, 20, 30, 50, 70 and 90 minutes on ice or at room temperature (22° C.). Mebranes are harvested in ice-cold ELGA-water onto a GF/C fiberglass filter (Presoaked with 0.5% PEI for 30 min). Filters are rinsed twice with 2×0.5 ml ice-cold ELGA-water. The filters are dried and added 40 L of scintillation fluid.

hSERT [3] = target: T1, hSERT; test: [3H]-(S)-citalopram dissociation from SERT (allosteric site binding)
Experimental: The assay procedure was modified based on the methods described in Pharmacol. Toxicol., 80, 197-201, 1997 and J.Neurochem., 92, 21-28, 2005.
PeakRapid 293 cells (Edge Biosystems, Gaithersburg, Md.) were cultured in Dulbecco's Modified Eagle Medium (DMEM) supplemented with 10% bovine calf serum, 4 mM L-glutamine, 100 units/ml penicillin and 100 μg/ml streptomycin) at 37° C., 5% CO2. Human SERT cDNA in a mammalian expression vector was transiently transfected into PeakRapid 293 cells using 10 μg total DNA in 150 cm2 flasks by lipofectamine method (Invitrogen, Carlsbad, Calif.). Two days after transfection, membranes were harvested.
Binding assays were conducted in buffer containing 50 mM Tris, 120 mM NaCl, and 5 mM KCl, PH 7.4. Prior to dissociation binding, [3H]-(S)-citalopram (40 nM) was incubated with hSERT membranes (5 ug/10 ul) for 2 hours at room temperature. The reaction mixture was dispensed into 96 well format minitubes at 10 ul/well and kept on ice. […] Bound ligand was counted using a Trilux counter.
Dissociation binding data were analyzed using GraphPad Prism 4 (GraphPad, San Diego, Calif.) and Xlfit 4 (IDBS, Guildford, Surrey, UK). […] The ratios (k/k0) of the rate (k) in the presence compounds over the rate (k0) in the absence of compounds were calculated for each compound concentration. […]

[4] = test system: extra cellular serotonin levels (ventral hippocampus); test: 3-day microdialysis in rats (minipumps); assay type: in vivo, rat; details: 4 mg/kg vs 10 mg/kg (S)-citalopram, oxalate salts, FIG. 4
Experimental: as §1, §2, §3, §4

T1 sequence (P31645 whole entry): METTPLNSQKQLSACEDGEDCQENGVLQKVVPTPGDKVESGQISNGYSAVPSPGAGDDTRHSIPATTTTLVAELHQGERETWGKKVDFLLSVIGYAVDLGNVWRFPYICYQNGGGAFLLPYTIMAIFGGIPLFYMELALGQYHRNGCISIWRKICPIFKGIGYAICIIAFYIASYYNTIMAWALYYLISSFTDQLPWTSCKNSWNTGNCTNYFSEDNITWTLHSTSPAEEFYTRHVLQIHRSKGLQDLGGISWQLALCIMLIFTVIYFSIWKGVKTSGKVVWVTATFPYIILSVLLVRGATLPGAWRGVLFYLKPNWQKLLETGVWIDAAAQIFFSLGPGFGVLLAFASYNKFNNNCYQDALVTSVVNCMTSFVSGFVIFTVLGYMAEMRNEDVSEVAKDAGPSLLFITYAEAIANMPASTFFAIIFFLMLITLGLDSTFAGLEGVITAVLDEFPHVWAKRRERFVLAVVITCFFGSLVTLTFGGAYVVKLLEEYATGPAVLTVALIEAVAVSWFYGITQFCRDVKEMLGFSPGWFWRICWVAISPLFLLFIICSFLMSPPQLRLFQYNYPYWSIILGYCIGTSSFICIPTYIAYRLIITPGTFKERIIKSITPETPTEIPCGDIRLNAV

Compound: CNCc1ccccc1Sc1c[nH]c2cc(F)ccc12 [[2-(6-Fluoro-1H-indol-3-ylsulfanyl)-benzyl]-methyl-amine]
- extracellular serotonin in the ventral hippocampus [1]: significant increase
- effect of concomitant (R)-citalopram on the increase in extracellular serotonin ([1]; ventral hippocampus): not affected by concomitant administration of (R)-citalopram
- effect of (R)-citalopram on association of the [3H] ligand to SERT (hSERT [2]): almost unaffected by (R)-citalopram
- slowing of 3H (S)-citalopram dissociation rate (fold modulation) (hSERT [3]; at 200 μM): 5.4 fold
- IC50 (hSERT [3]; hSERT membranes, [3H]-(S)-citalopram 40 nM, room temperature, N=2, read-out: IC50 of binding to an allosteric site (from k/k0 of 3H-(S)-citalopram dissociation)): 26 µM
- increase in serotonin levels compared with (S)-citalopram [4]: faster and more pronounced increase in the serotonin levels than (S)-citalopram

Source: patent publication US20090054510A1, “METHOD FOR IDENTIFYING COMPOUNDS FOR THE TREATMENT OF DEPRESSION” (H. LUNDBECK A/S, priority 2006, published 2009)
